Active and inactive are the calls of the source. The rule behind the calls is not given here.
Tests used:
Rattus norvegicus [1] = assay: Antiakinetic activity in 6-OHDA induced unilaterally lesioned Wistar rat Parkinson's disease model assessed as assessed as increase in double contacts compound administered ip, qd for 5 days prior to 6-OHDA-challenge measured on day 11 post 1.5 hr of last dosage by cylinder test; format: functional
[2] = AUC in mouse at 2 mg/kg, po or 1 mg/kg, iv; format: ADME, organism-based; conditions: in vivo
Rattus norvegicus [3] = species on record: Rattus norvegicus; assay: Cytoprotection against thapsigargin-induced ER-stress in rat CSM14.1 cells assessed as increase in cell viability preincubated for 2 hrs followed by thapsigargin addition measured after 20 hrs by ATPlite assay relative to thapsigargin treated control; format: functional, cell-based
Rattus norvegicus [4] = assay: (§1) Antiakinetic activity in 6-OHDA induced unilaterally lesioned Wistar rat Parkinson's disease model assessed as restoration of 6-OHDA-induced decrease in number of adjusting steps in contralateral forelimb at 10 mg/kg, ip qd administered 5 days prior to 6-OHDA-challenge measured on day 11 post 1 hr of last dosage; format: functional, organism-based
HeLa = assay: Activation of SERCA in human HeLa cells expressing YFP/CFP fused cameleon assessed as reduction in thapsigargin-induced decrease in endoplasmic reticulum calcium level by inverted wide-field fluorescence microscopy; format: cell-based
Rattus norvegicus [5] = assay: (§2) Antiakinetic activity in 6-OHDA induced unilaterally lesioned Wistar rat Parkinson's disease model assessed as reduction in 6-OHDA-induced increase in initiation time to move towards plane surface at 10 mg/kg, ip qd administered 5 days prior to 6-OHDA-challenge measured 1 hr post compound treatment on day 11 relative to non-lesioned control; format: functional, organism-based
[6] = Tmax in mouse at 2 mg/kg, po or 1 mg/kg, iv; format: ADME, organism-based; conditions: in vivo
[7] = Cytoprotection against thapsigargin-induced ER-stress in rat CSM14.1 cells assessed as cell viability at 15 ug/ml preincubated for 2 hrs followed by thapsigargin addition measured after 20 hrs by ATPlite assay relative to thapsigargin treated control; format: functional; conditions: read-out: Activity
[8] = Cmax in mouse at 2 mg/kg, po or 1 mg/kg, iv; format: ADME, organism-based; conditions: in vivo
Homo sapiens = species on record: Homo sapiens; assay: Activation of SERCA (unknown origin)
[9] = Metabolic stability in mouse plasma measured after 1 hr; format: ADME, cell-free; conditions: read-out: Stability
[10] = Permeability of the compound by PAMPA; format: ADME
[11] = Metabolic stability in human liver microsomes measured after 1 hr; format: ADME; conditions: read-out: Stability
[12] = Ratio of drug level in mouse brain to plasma at 10 mg/kg, ip measured after 1 hr; format: ADME, organism-based; conditions: read-out: BPR
Rattus norvegicus [13] = assay: as §1, with “administered” for “at 10 mg/kg,”, “for” for “administered”; format: functional, organism-based
Rattus norvegicus [14] = assay: as §2, with “administered” for “at 10 mg/kg,”, “for” for “administered”; format: functional, organism-based
Rattus norvegicus [15] = assay: Antiakinetic activity in 6-OHDA induced unilaterally lesioned Wistar rat Parkinson's disease model assessed as increase in double contacts at 10 mg/kg, ip qd administered 5 days prior to 6-OHDA-challenge measured on day 11 post 1.5 hr of last dosage by cylinder test; format: functional, organism-based

AUC [2]	Tmax [6]	Cmax [8]	Activity (Homo sapiens)	remaining at 1 h [9]	permeability [10]	remaining at 1 h [11]	Kp at 1 h [12]	SMILES	Activity (Rattus norvegicus [1])	Activity (Rattus norvegicus [3])	Activity (Rattus norvegicus [4])	Activity (HeLa)	Activity (Rattus norvegicus [5])	viability at 15 µg/mL [7]	Activity (Rattus norvegicus [13])	Activity (Rattus norvegicus [14])	Activity (Rattus norvegicus [15])
0.41 µM·h	40.2 min	260 nM	Active	94%	Permeable	58%	2.83 to 3	Cc1ccc2cccc(NC(=O)c3ccc(OC(C)C)cc3)c2n1	Active	Dose-dependent effect	Active	Active	Active	100%	–	–	–
–	–	–	–	–	–	–	–	N[C@@H](Cc1ccc(O)c(O)c1)C(=O)O	–	–	–	–	–	–	Active	Active	Active
